Results on 34 compounds are retold here after patent publication US10738041B2, “Ferroportin inhibitors” (Vifor (International) AG, priority 2015, dated 2020).

SMILES strings stand for the structures.

One assay deals with T1, human Fpn (Homo sapiens, UniProt Q9NP59).
T1 construct: FLAG (C); made in house; host or cells: Pichia pastoris
T1 sequence (Q9NP59 1-571): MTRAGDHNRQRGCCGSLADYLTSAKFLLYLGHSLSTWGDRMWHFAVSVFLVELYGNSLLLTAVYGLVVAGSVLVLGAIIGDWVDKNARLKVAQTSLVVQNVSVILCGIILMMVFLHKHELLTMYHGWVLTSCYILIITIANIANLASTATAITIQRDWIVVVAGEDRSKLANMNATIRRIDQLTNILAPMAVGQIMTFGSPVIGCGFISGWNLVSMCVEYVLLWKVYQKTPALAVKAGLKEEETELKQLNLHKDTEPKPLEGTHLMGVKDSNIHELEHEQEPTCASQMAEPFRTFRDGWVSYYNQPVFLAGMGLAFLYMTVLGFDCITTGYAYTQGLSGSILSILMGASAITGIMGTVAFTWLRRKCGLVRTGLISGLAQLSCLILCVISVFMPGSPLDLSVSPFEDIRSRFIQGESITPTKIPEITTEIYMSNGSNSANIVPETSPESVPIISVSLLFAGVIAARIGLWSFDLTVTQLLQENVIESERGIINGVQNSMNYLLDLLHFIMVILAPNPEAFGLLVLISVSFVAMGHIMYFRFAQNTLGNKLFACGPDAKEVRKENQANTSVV
Briefly: Biophysical Ferroportin-Hepcidin Binding Assay (fluorescence polarization). As to conditions: average of multiple measurements; 1 μM human Fpn, 20 nM TMR-hepcidin; read-out: FP IC50. Here is the method: This biophysical assay was developed to confirm inhibition of hepcidin binding to ferroportin (Fpn) more directly. Incubation of TMR-hepcidin with purified human Fpn isolated from Pichia pastoris yeast cells expressing human Fpn with a C-terminal FLAG affinity tag (Bonaccorsi di Patti, 2014) leads to increased fluorescence polarization (FP) of the TMR-hepcidin ligand. Small molecular weight Fpn inhibitors were tested for inhibition of binding of TMR-hepcidin to Fpn, as detected by dose-dependent decrease of the TMR FP signal, as described in detail below.
8 μl of serial dilutions of test compounds were added in duplicates to reach final Fpn and TMR-hepcidin concentrations of 1 μM and 20 nM, respectively. Plates were incubated for 90 minutes at room temperature and parallel (S) and perpendicular (P) fluorescence was measured in a Synergy H1 fluorescence reader (BioTek). FP values were calculated in mP according to the following formula.
A general note: Fluorescence polarisation rises when a labelled molecule tumbles more slowly, as on binding a larger partner.

Another assay concerns the target T2, ferroportin (Fpn) (Mus musculus, UniProt Q9JHI9).
T2 construct: host or cells: J774 mouse macrophage cell line, Fe(III)-NTA induced
T2 sequence (Q9JHI9 1-570): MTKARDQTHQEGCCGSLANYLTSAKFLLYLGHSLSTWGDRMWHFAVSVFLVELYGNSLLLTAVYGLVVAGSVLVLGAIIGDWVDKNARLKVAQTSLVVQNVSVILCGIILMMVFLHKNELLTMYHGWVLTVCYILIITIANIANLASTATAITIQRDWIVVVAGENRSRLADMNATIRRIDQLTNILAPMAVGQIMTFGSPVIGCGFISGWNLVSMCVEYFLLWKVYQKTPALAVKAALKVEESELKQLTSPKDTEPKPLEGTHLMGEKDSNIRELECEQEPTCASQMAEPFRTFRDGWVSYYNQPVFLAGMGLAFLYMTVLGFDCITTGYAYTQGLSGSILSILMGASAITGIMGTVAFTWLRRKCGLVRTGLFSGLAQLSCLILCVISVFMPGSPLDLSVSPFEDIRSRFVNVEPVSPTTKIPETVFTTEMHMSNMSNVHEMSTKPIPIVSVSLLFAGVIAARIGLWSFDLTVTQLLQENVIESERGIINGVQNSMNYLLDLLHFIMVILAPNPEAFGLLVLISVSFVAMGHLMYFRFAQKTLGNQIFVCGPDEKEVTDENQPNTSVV
As to the kind of experiment: Hepcidin Internalization Assay (J774). The class given is cell-based. The following applies: average of multiple measurements; inhibition of TMR-hepcidin (25 nM) internalization into J774 cells; read-out: J774 IC50. The source says:
This cellular assay allows quantification of the binding of hepcidin to ferroportin (Fpn) through microscopic detection of internalization of a fluorescently labeled hepcidin into J774 cells. […] Binding of hepcidin to Fpn triggers internalization and degradation of both hepcidin and Fpn. However, the TMR (6-carboxytetramethylrhodamine) fluorophore attached to hepcidin remains associated with the cell after degradation of the hepcidin peptide backbone. Therefore, microscopic detection of ceH associated TMR fluorescence is a measure of hepcidin binding to Fpn and internalization of hepcidin and Fpn. If TMR-hepcidin is prevented from binding to Fpn, cellular TMR fluorescence remains low (Dürrenberger et al, 2013). The effect of small molecular weight Fpn inhibitor compounds in this assay was evaluated in vitro as described below.
J774 cells, harvested from ca. 80% confluent cultures, were plated at 8×10^5 cells/ml in complete medium (DMEM, 10% FBS, 1% Penicillin-Streptomycin) containing 200 μM Fe(III)NTA (nitrilotriacetic acid), 100 μl per well of 96 well MicroClear plates (Greiner; Cat. 655090) and grown at 37° C. with 5% CO2. After overnight incubation, cells were washed 3 times with pre-warmed DMEM w/o phenol red, 30 μl/well of DMEM w/o phenol red was added after the final wash and 10 μl/well of dilution series of test compounds were added in triplicates. […] Cells were incubated in a total volume of 50 μl at 37° C. with 5% CO2 for 2 hours, then Hoechst 33342 dye was added to a final concentration of 0.5 μg/ml to stain nuclei and further incubated for 10 min. at 37° C. with 5% CO2. Cells were washed 3 times with PBS and fixed in 100 μl of 4% paraformaldehyde in PBS for 15 min. at room temperature. After removal of the paraformaldehyde solution, cells were washed 3 times with PBS leaving 100 μl per well and the plates were sealed with foil plate seal. TMR (530-550 nm excitation/575-625 nm emission/400 ms exposure time) and Hoechst 33342 (360-370 nm excitation/420-460 nm emission/10 ms exposure time) fluorescence images were acquired using a ScanR plate imager (Olympus) with a 20× high NA objective. Four pictures were acquired per well and fluorescence channel covering ca. 1500 cells per well. The acquired image data was analysed with the ScanR image analysis software. Image analysis included detection of nuclei (Hoechst 33342 fluorescence), identification of cell-associated regions, application of a virtual channel and thresholding for rolling-ball-type background reduction, followed by application of the Sum(Mean) algorithm to measure the TMR fluorescence associated with cells as a quantitative measure for internalized TMR-hepcidin. IC50 values were calculated with the Sum(Mean) raw data using “log(inhibitor) vs. response” curve fitting of Prism 5 software (GraphPad Software Inc., version 5.02).

Usually IC50 stands for the concentration at which inhibition is half-maximal. `O=C(NCc1ccccc1)c1ccc(CCNCc2nc3ccccc3[nH]2)cc1` [Example 66]: the IC50 worked out at 53.8 µM on human Fpn and 0.41 µM at ferroportin (Fpn).
With `O=C(NCc1ccccc1)c1csc(CCNCc2ccccn2)n1` [Example 11], the 50% inhibitory concentration (IC50) is 7.83 µM on human Fpn and 20.9 µM at ferroportin (Fpn).
For `O=C(NCc1ncc[nH]1)c1csc(CCNCc2nc3ccccc3[nH]2)n1` [Example 95] the same measures were 13 µM and 7.23 µM.
The like results for `CN(CCc1nc2ccccc2[nH]1)CCc1nc(C(=O)NCc2ncccc2F)co1` [Example 223] were, in that order, 2.68 µM and 1.9 µM.
Consider `O=C(NCc1ncccc1F)c1csc(CNCCCc2nc3ccccc3[nH]2)n1` [Example 119], for which the values for the IC50 at human Fpn and on ferroportin (Fpn) were 5.3 µM and 0.164 µM, respectively.
For `O=C(NCCc1ccccn1)c1csc(CCNCc2nc3ccccc3[nH]2)n1` [Example 76] the same measures were 5.08 µM and 0.34 µM.
The like results for `O=C(NCc1ccccc1)c1csc(CCNCc2nc3cc(OC(F)(F)F)ccc3[nH]2)n1` [Example 62] were, in that order, 0.436 µM and 0.93 µM.
For `O=C(NCc1ncccc1F)c1cccc(CCNCCc2nc3ccccc3[nH]2)c1` [Example 235] the same measures were 0.295 µM and 0.91 µM.
With `Cc1cnc(CNC(=O)c2nc(CCNCc3nc4ccccc4[nH]3)sc2Cl)nc1` [Example 178], the values for the half-inhibitory concentration (IC50) at human Fpn and on ferroportin (Fpn) were 1.92 µM and 3.64 µM, respectively.
In the case of `O=C(NCc1cccc(N2CCCC2)c1)c1csc(CCNCc2nc3ccccc3[nH]2)n1` [Example 21], the IC50 at human Fpn amounted to 1.43 µM; on ferroportin (Fpn) it was 6.7 µM.
With `O=C(NCc1ncccc1CO)c1csc(CCNCc2nc3ccccc3[nH]2)n1` [Example 110], the IC50 at human Fpn is 3.42 µM; at ferroportin (Fpn), 1.7 µM.
Take `CC1(c2nc(C(=O)NCc3ncccc3F)cs2)CN(CCc2nc3ccccc3[nH]2)C1` [Example 212]: the 50% inhibitory concentration (IC50) on human Fpn worked out at 3.76 µM; at ferroportin (Fpn), 8.51 µM.
For `Cn1cc(CNC(=O)c2csc(CCNCc3nc4ccccc4[nH]3)n2)cn1` [Example 91], the figures for the IC50 at human Fpn and on ferroportin (Fpn) were 12.1 µM and 2.07 µM, respectively.
Take `O=C(NCc1ncc(F)cc1F)c1csc(CNCCCc2nc3ccccc3[nH]2)n1` [Example 124]: the half-inhibitory concentration (IC50) at human Fpn was found to be 3.5 µM; at ferroportin (Fpn), 6.33 µM.
For `O=C(NCc1ccccc1)c1csc(CCNCc2nc3cccnc3[nH]2)n1` [Example 33], the half-inhibitory concentration (IC50) on human Fpn turned out to be 17.2 µM; at ferroportin (Fpn), 3.62 µM.
As for `O=C(NCc1cccc(=O)[nH]1)c1csc(CCNCc2nc3ccccc3[nH]2)n1` [Example 47], the IC50 on human Fpn worked out at 3.42 µM; on ferroportin (Fpn) it was 0.72 µM.
The like results for `O=C(NCc1ccncc1)c1csc(CCNCc2nc3ccccc3[nH]2)n1` [Example 36] were, in that order, 3.65 µM and 0.25 µM.
For `O=C1N[C@@H](CCN2CCCc3nc4ccccc4n3C2)C(=O)N1CCc1ncccc1F` [Example 240] the same measures were 2.67 µM and 2.45 µM.
As for `O=C(NCc1cccnc1F)c1csc(CCNCc2nc3ccccc3[nH]2)n1` [Example 103], the values for the IC50 on human Fpn and at ferroportin (Fpn) were 2.52 µM and 2.37 µM, respectively.
Turning to `O=C(NCc1ccccc1)c1csc(CCNCc2cn3ccccc3n2)n1` [Example 34], the IC50 on human Fpn was found to be 4.29 µM; on ferroportin (Fpn), 0.36 µM.
The like results for `O=C(NCc1nc2ccccc2[nH]1)c1csc(CCNCc2nc3ccccc3[nH]2)n1` [Example 60] were, in that order, 0.974 µM and 2.39 µM.
The like results for `O=C(NCc1ncccc1F)c1ccnc(CCNCc2nc3ccccc3[nH]2)c1` [compound 222] were, in that order, 0.808 µM and 3.4 µM.
Consider `O=C(NCc1ncccc1F)c1cnn(CC2CN(Cc3nc4ccccc4[nH]3)C2)c1` [Example 187], for which the 50% inhibitory concentration (IC50) on human Fpn was 35.5 µM; at ferroportin (Fpn) it was 87 µM.
For `O=C(NCc1ccc(C(F)(F)F)nc1)c1csc(CCNCc2nc3ccccc3[nH]2)n1` [Example 81] the same measures were 2.97 µM and 0.42 µM.
Consider `Cc1ccnc(CNC(=O)c2csc(CCNCc3nc4ccccc4[nH]3)n2)c1` [Example 106], for which the values for the IC50 on human Fpn and at ferroportin (Fpn) were 4.46 µM and 1.52 µM, respectively.
Take `O=C(NCc1ncccc1F)c1csc([C@H]2[C@@H]3CN(CCc4nc5ccccc5[nH]4)C[C@@H]32)n1` [Example 218]: the IC50 on human Fpn turned out to be 2.2 µM; on ferroportin (Fpn) it was 4.5 µM.
Regarding `CN(C)c1ccc(CNC(=O)c2csc(CCNCc3nc4ccccc4[nH]3)n2)cn1` [Example 98], the half-inhibitory concentration (IC50) on human Fpn turned out to be 5.71 µM; on ferroportin (Fpn), 1.85 µM.
As for `O=C(NCc1ncccc1F)c1cccc(CCNCCc2nc3c(F)cccc3[nH]2)c1` [Example 241], the half-maximal inhibitory concentration (IC50) on human Fpn was determined as 1.65 µM; on ferroportin (Fpn), 2.1 µM.
In the case of `CN(Cc1ccccc1)C(=O)c1csc(CCNCc2nc3ccccc3[nH]2)n1` [Example 17], the IC50 on human Fpn stood at 3.53 µM; on ferroportin (Fpn), 6.4 µM.
With `O=C(CCNCc1nc2ccccc2[nH]1)NCC(=O)NCc1ncccc1F` [compound 172], the results for the IC50 at human Fpn and on ferroportin (Fpn) were 3.4 µM and 3.93 µM, respectively.
The like results for `O=C(NCc1ncccc1F)c1csc(CCNCCCc2nc3ccccc3[nH]2)n1` [Example 125] were, in that order, 3.7 µM and 1.66 µM.
Take `O=C(NCc1ncccc1F)c1cnn(CC2CN(CCc3nc4ccccc4[nH]3)C2)c1` [Example 192]: the IC50 on human Fpn turned out to be 49.3 µM; at ferroportin (Fpn), 13.6 µM.
As to `O=C(NCc1ncccc1F)[C@@H]1CCN(CCNCc2nc3ccccc3[nH]2)C1` [compound 204], the IC50 at human Fpn was found to be 1.63 µM; at ferroportin (Fpn) it was 3.3 µM.
As to `CC(C)(CNCCc1nc2ccccc2[nH]1)c1nc(C(=O)NCc2ncccc2F)cs1` [Example 242], the IC50 amounted to 27.8 µM on human Fpn and 8.92 µM at ferroportin (Fpn).
